# Earlier results in US20070042005A1, “Pharmaceutical composition comprising fungal cell or fragment thereof” (priority 2003, published 2007).
# Assays:
# [1] = rats
# [2] = in animals; owing to poor intestinal permeability
smiles,measurement,setting,value
C[C@H](N[C@@H](CCc1ccccc1)C(=O)O)C(=O)N1CCC[C@H]1C(=O)O [Enalaprilat],oral absorption,,poorly absorbed orally
CCCCCCCCCCCCCCCC(=O)OC(CC(=O)[O-])C[N+](C)(C)C (stereo not drawn) [Palmitoyl carnitine],effect on bioavailability of cefoxitin,[1],increase the bioavailability of cefoxitin
CO[C@@]1(NC(=O)Cc2cccs2)C(=O)N2C(C(=O)O)=C(COC(N)=O)CS[C@@H]21 [cefoxitin],oral bioavailability,[2],< 5%
